Series [1] deals with Staphylococcus aureus. Put plainly: Antibacterial activity against methicillin-resistant Staphylococcus aureus ATCC 4330 assessed as bacterial growth inhibition. The format is functional.
Series [2] concerns the target Prostaglandin G/H synthase 1 (Homo sapiens, UniProt P23219). Put plainly: Inhibition of COX-1 (unknown origin).
Series [3] is described as follows: Antiinflammatory activity against mouse primary bone marrow derived macrophages assessed as inhibition of COX-2 at 100 ug/ml. The format is functional, BMDM. On the set-up: scale not given: the % may be the effect or the level left. As to conditions: dose 100 µg/ml.
Series [4] relates to KB. The series can be described thus: Cytotoxicity against human KB cells assessed as reduction in cell viability by colorimetric assay. It counts as functional, cell-based.
Another series has as its system Breast carcinoma cell. The series can be described thus: Cytotoxicity against human Breast carcinoma cell assessed as reduction in cell viability by colorimetric assay. It counts as functional, cell-based.
The test system of series [5] is NCI-H187. Put plainly: Cytotoxicity against human NCI-H187 cells assessed as reduction in cell viability by colorimetric assay. It counts as functional, cell-based.
Series [6] deals with Plasmodium falciparum. The series can be described thus: Antiplasmodial activity against Plasmodium falciparum K1 assessed as reduction in parasitic growth by fluorescence based analysis. The format is functional, organism-based.
The subject of series [7] is Plasmodium falciparum. The series can be described thus: Antiplasmodial activity against Plasmodium falciparum W2 assessed as reduction in plasmodial growth after 48 hrs by fluorescence based analysis. The format is functional, organism-based. The conditions noted are these: W2, 48 h.
For series [8], the system named is Candida albicans. Put plainly: Antifungal activity against Candida albicans SC5314 assessed as reduction in fungal growth incubated for 24 hrs by serial dilution method. The format is functional.
For series [9], the system named is J774.A1. The series can be described thus: Anti-inflammatory activity against mouse J774.A 1 macrophage assessed as reduction in LPS-induced TNFalpha expression by RT-PCR analysis. The format is functional. Details: scale not given: the % may be the effect or the level left.
Series [10] deals with J774.A1. Put plainly: Anti-inflammatory activity against mouse J774.A 1 macrophage assessed as reduction in LPS-induced IL-6 expression by RT-PCR analysis. It counts as functional. Details: scale not given: the % may be the effect or the level left.
Series [11] in a line: Antioxidant activity assessed as DPPH radical scavenging activity incubated for 20 mins by spectrometry method. The format is functional. For orientation: Loss of DPPH colour is used to gauge radical scavenging.
In the next series the target is Maltase-glucoamylase (Homo sapiens, UniProt O43451). Put plainly: Inhibition of human Alpha-glucosidase.
Series [12] has as its target Sterol O-acyltransferase 2 (Homo sapiens) (UniProt O75908). Put plainly: Inhibition of human ACAT2 at 100 uM.
For series [13], the target named is Sterol O-acyltransferase 1 (Homo sapiens) (UniProt P35610). Put plainly: Inhibition of human ACAT1 at 100 uM.
In series [14] the test system is Staphylococcus aureus. The series can be described thus: Antibacterial activity against Staphylococcus aureus ATCC 25923 assessed as bacterial growth inhibition by broth dilution method. It counts as functional, organism-based. On the technique in general: Dilution methods test growth across graded concentrations, often in twofold steps.
For series [15], the system named is Staphylococcus aureus. The series can be described thus: Antibacterial activity against methicillin-resistant Staphylococcus aureus ATCC 25923 assessed as bacterial growth inhibition by broth dilution method. The format is functional, organism-based.
The test system of series [16] is KB. The series can be described thus: Cytotoxicity against human KB cells assessed as reduction in cell viability by resazurin microplate assay. It counts as functional, cell-based.
The next series relates to MCF7. Put plainly: Cytotoxicity against human MCF7 cells assessed as reduction in cell viability by resazurin microplate assay. It counts as functional, cell-based. Background: The colour change of resazurin is a common sign of viable cells or microbes.
The test system of series [17] is NCI-H187. Put plainly: Cytotoxicity against human NCI-H187 cells assessed as reduction in cell viability by resazurin microplate assay. It counts as functional, cell-based.
Series [18] is described as follows: Cytotoxicity against mouse RAW264.7 cells assessed as increase in NO production measured after 48 hrs by MTT assay. It counts as toxicity, cell-based.
Series [19] in a line: Cytotoxicity against mouse N9 cells assessed as reduction in cell viability incubated for 48 hrs by MTT assay. The format is toxicity, cell-based.
The test system of series [20] is Candida albicans. Put plainly: Antifungal activity against Candida albicans ATCC 10231 assessed as reduction in fungal growth by NCCLS method. It counts as functional.
For series [21], the system named is Candida albicans. Put plainly: Antifungal activity against multidrug-resistant Candida albicans ATCC 10231 assessed as reduction in fungal growth by NCCLS method. The format is functional.
In series [22] the test system is Plasmodium falciparum. The series can be described thus: Antiplasmodial activity against Plasmodium falciparum K1 assessed as reduction in parasite growth by fluorescence based assay. The format is functional, organism-based.
The subject of series [23] is Mycobacterium tuberculosis. The series can be described thus: Antimycobacterial activity against Mycobacterium tuberculosis H37Rv assessed as inhibition of bacterial growth by Microplate alamar blue assay. It counts as functional, organism-based.
In series [24] the test system is Enterococcus. The series can be described thus: Antibacterial activity against vancomycin-resistant Enterococcus GCMT1 assessed as reduction in bacterial growth incubated for 24 hrs by microbroth dilution method. The format is functional.
Series [25] relates to Enterococcus. Put plainly: Antibacterial activity against vancomycin-resistant Enterococcus GCMT3 assessed as reduction in bacterial growth incubated for 24 hrs by microbroth dilution method. It counts as functional.
The next series concerns Streptococcus agalactiae. Put plainly: Antibacterial activity against Streptococcus agalactiae ATCC 12386 assessed as reduction in bacterial growth by microbroth dilution method. The format is functional.
The test system of series [26] is Mycobacterium tuberculosis. Put plainly: Antimycobacterial activity against Mycobacterium tuberculosis H37Ra assessed as reduction in bacterial growth by MABA method. The format is functional.

Twelve compounds from ChEMBL document CHEMBL5260799, “Pterocarpan scaffold: A natural lead molecule with diverse pharmacological properties” (Eur J Med Chem, 2017) can be followed below.

Values after ≈ are worked out from the molar mass of the structure shown.

Chain of Sterol O-acyltransferase 2 (Homo sapiens) (O75908 whole entry): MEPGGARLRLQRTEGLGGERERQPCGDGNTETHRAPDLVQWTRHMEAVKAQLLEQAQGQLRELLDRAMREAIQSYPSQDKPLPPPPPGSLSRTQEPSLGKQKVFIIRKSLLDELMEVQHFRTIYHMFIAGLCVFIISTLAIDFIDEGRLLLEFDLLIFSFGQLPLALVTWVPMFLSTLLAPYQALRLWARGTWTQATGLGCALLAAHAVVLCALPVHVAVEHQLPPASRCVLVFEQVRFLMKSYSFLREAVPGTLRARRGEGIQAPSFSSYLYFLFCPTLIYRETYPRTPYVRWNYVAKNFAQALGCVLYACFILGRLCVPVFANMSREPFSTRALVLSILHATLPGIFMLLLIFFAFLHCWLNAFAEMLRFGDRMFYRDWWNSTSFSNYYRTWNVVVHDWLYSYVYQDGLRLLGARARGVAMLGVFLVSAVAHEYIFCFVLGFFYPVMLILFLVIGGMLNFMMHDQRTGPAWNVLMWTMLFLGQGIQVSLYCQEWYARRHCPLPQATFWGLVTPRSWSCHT
Chain of Maltase-glucoamylase (O43451 whole entry): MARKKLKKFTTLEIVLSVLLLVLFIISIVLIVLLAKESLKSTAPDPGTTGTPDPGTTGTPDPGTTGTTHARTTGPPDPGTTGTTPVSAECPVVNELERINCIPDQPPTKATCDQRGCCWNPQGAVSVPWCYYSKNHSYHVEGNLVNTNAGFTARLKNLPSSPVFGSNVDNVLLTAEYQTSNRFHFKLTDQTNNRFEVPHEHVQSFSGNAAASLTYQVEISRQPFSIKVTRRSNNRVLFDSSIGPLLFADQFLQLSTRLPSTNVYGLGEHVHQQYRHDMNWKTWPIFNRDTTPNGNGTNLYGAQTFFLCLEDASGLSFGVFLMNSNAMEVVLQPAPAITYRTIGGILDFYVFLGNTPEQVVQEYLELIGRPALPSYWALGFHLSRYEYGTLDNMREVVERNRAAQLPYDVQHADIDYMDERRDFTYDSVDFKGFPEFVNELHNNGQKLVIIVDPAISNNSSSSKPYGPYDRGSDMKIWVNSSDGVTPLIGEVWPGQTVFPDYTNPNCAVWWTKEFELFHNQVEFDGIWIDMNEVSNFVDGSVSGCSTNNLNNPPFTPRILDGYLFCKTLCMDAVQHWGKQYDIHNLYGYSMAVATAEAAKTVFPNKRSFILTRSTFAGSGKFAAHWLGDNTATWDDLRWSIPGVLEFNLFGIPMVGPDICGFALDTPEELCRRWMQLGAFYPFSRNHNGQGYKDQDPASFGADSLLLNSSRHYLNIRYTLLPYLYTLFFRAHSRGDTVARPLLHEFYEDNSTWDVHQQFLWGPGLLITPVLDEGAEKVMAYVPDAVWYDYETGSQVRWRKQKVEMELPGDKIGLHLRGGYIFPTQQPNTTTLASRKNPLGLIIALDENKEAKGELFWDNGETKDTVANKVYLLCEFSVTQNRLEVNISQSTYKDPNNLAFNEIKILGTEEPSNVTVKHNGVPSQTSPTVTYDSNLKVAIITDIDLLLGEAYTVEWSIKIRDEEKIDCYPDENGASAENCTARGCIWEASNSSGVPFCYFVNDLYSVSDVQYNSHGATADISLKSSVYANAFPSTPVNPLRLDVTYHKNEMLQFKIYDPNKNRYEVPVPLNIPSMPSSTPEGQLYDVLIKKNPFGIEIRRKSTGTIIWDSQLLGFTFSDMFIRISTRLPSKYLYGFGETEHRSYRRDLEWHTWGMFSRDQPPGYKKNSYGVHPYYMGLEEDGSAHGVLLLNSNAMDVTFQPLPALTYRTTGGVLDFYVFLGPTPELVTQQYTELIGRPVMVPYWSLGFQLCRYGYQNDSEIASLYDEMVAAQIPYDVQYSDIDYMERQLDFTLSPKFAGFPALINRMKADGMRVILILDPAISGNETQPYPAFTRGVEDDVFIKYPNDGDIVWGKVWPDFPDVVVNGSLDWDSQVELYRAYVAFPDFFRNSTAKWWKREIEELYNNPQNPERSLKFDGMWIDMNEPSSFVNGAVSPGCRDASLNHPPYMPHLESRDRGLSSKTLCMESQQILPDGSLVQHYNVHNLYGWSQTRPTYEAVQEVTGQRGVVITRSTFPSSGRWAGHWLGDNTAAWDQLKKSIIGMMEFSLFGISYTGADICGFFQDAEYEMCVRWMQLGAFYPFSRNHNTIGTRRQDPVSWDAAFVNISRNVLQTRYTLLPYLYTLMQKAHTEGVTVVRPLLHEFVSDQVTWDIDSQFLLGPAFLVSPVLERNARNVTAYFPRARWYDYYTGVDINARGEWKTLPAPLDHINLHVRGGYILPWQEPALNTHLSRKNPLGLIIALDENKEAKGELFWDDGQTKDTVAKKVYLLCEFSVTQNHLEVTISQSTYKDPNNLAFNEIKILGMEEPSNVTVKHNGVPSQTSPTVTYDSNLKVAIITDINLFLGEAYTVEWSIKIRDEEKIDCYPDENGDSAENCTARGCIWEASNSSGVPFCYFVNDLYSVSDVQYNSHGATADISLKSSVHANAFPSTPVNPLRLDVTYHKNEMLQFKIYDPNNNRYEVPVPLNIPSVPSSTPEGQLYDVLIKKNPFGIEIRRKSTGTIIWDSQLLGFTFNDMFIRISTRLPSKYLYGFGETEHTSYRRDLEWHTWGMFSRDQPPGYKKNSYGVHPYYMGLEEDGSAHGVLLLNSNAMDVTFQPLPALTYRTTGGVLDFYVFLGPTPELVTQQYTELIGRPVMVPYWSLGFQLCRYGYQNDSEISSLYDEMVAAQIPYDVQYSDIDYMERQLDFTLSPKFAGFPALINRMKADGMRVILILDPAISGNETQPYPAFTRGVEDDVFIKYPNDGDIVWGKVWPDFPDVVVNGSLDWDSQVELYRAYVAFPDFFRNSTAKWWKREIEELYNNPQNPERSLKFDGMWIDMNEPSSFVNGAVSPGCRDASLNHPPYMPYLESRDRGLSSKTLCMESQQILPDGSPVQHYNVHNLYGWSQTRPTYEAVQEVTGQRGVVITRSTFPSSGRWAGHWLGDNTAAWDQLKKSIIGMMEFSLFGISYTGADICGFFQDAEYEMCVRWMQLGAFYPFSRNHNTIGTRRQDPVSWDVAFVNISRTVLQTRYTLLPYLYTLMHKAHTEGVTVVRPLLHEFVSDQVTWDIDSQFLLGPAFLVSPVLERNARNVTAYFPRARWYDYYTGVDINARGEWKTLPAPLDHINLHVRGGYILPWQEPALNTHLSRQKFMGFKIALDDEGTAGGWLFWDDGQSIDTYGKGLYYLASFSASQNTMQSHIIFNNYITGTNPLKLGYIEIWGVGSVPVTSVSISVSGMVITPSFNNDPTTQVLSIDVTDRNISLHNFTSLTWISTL
Chain of Prostaglandin G/H synthase 1 (P23219 whole entry): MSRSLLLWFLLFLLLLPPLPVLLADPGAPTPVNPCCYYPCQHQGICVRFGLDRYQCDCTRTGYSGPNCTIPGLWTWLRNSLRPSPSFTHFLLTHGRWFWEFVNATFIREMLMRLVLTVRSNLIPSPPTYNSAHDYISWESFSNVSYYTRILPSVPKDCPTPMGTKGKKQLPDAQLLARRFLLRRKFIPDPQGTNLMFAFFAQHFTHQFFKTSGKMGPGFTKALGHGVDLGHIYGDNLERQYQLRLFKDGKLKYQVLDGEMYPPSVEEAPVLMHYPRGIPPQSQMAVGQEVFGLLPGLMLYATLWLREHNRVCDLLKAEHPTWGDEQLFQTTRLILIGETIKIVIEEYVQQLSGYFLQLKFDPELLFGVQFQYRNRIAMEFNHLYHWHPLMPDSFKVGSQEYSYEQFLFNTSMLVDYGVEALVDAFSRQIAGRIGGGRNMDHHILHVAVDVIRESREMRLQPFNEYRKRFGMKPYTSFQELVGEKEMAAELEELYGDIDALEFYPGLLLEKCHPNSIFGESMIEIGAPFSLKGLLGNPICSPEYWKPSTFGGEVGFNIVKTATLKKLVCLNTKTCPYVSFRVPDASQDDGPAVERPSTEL
Chain of Sterol O-acyltransferase 1 (Homo sapiens) (P35610 whole entry, looked up): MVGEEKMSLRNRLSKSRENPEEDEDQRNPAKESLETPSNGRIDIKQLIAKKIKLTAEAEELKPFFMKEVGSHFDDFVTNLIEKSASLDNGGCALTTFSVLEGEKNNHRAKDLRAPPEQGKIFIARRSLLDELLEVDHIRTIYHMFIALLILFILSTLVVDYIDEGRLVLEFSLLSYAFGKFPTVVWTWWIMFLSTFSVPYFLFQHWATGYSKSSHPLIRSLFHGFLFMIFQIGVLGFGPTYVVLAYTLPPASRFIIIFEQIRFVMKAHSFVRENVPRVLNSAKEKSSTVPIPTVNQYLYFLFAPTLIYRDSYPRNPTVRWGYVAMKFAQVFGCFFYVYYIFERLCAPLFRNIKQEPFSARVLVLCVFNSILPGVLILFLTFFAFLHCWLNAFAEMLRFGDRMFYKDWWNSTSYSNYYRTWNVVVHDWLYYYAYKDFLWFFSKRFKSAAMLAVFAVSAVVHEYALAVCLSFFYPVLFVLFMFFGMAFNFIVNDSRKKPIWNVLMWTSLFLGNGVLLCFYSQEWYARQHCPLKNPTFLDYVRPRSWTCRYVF

Usually MIC50 stands for an inhibitory concentration at the 50% level, which refers to growth in some studies and to a panel of isolates in others. For the compound `COc1ccc2c(c1CC=C(C)C)O[C@H]1c3ccc(O)c(CC=C(C)C)c3OC[C@@]21O`, the MIC50 in the series with Staphylococcus aureus [1] came to 6.25 µM (≈ 2.64 µg/mL).
For orientation: IC50 means the concentration at which inhibition is half-maximal. In turn, `COc1ccc2c(c1O)OC1c3ccc(O)c(OC)c3OCC21` (stereo unspecified) registered an IC50 in [2] of 30.5 µM. Also, the Activity in series [3] was found to be 52.5%.
With `CC(C)=CCc1c(O)ccc2c1O[C@H]1c3ccc(O)cc3OC[C@@H]21` [PHASEOLLIDIN], the IC50 was found to be 7.7 µg/mL (≈ 23.7 µM) in the series on KB [4]; 14.3 µg/mL (≈ 44.1 µM) with Breast carcinoma cell; 5.05 µg/mL (≈ 15.6 µM) with NCI-H187 [5]; 9.09 µg/mL (≈ 28 µM) with Plasmodium falciparum [6]; 1.66 µg/mL (≈ 5.12 µM) with Plasmodium falciparum [7].
A word on the MIC: it is the lowest concentration found to suppress growth. As for `Oc1cc2c(cc1O)[C@@H]1Oc3cc4c(cc3[C@@H]1CO2)OCO4`, the MIC in the series with Candida albicans [8] came out at 32 µg/mL (≈ 107 µM).
On to `OC[C@H]1O[C@H](Oc2ccc3c(c2)OCC2c4cc5c(cc4OC32)OCO5)[C@H](O)[C@@H](O)[C@@H]1O` (stereo partly specified), for which the Activity in the series on J774.A1 [9] and in the series with J774.A1 [10] was 25% in each case.
Take `COc1c(O)cc2c(c1OC)O[C@H]1c3ccc(O)cc3OC[C@@H]21`: the IC50 in [11] was 3.8 µM.
Usually inhibition stands for the share of the control response that was lost under treatment. As for `CC1(C)C=Cc2c(ccc3c2OC2c4ccc(O)cc4OCC32)O1` (stereo unspecified), at Maltase-glucoamylase, the IC50 is 6 µM. Also, the inhibition in [12] is 67.4%; in series [13], 85.9%.
`COc1ccc2c(c1CC=C(C)C)OC1c3ccc(O)cc3OCC21` (stereo unspecified): the IC50 came out at 4 µg/mL (≈ 11.8 µM) with Staphylococcus aureus [14]; 4 µg/mL (≈ 11.8 µM) in the series on Staphylococcus aureus [15]; 12.5 µg/mL (≈ 37 µM) with KB [16]; 7.51 µg/mL (≈ 22.2 µM) in the series on MCF7; 5.37 µg/mL (≈ 15.9 µM) in the series with NCI-H187 [17].
Take `C=C(C)/C(C)=C/c1c(O)ccc2c1O[C@H]1c3ccc(O)cc3OC[C@@H]21`: the IC50 at 48 h in [18] is 23 µM; in series [19], 9.4 µM.
For `COc1ccc2c(c1CC=C(C)C)O[C@H]1c3ccc(O)cc3OCC21` (stereo partly specified), the IC50 in the series with Staphylococcus aureus [14] amounted to 8 µg/mL (≈ 23.6 µM); in the series on Staphylococcus aureus [15], 16 µg/mL (≈ 47.3 µM); with Plasmodium falciparum [7], 1.83 µg/mL (≈ 5.41 µM). For the same compound, the values for the MIC in the series with Candida albicans [20] and in the series with Candida albicans [21] were 3.8 µg/mL (≈ 11.2 µM) and 1.9 µg/mL (≈ 5.61 µM), respectively.
For the compound `CC(C)=CCc1c(O)ccc2c1O[C@H]1c3ccc(O)c(CC=C(C)C)c3OC[C@@H]21` [ERYBRAEDIN A], the IC50 with Plasmodium falciparum [22] amounted to 3.4 µg/mL (≈ 8.66 µM); in series [23] it was 25 µg/mL (≈ 63.7 µM); in the series on KB [4], 5.1 µg/mL (≈ 13 µM); in the series with Breast carcinoma cell, 2.9 µg/mL (≈ 7.39 µM); in the series with NCI-H187 [5], 2.1 µg/mL (≈ 5.35 µM). The MIC in the series on Enterococcus [24] was 1.56 µg/mL (≈ 3.97 µM); with Enterococcus [25] it was 3.13 µg/mL (≈ 7.97 µM); in the series with Streptococcus agalactiae it was 0.78 µg/mL (≈ 1.99 µM).
With `COc1c(CC=C(C)C)c(O)cc2c1[C@@H]1Oc3c(ccc(O)c3CC=C(C)C)[C@@H]1CO2`, the MIC in [26] amounted to 50 µg/mL (≈ 118 µM).
